Common to all, as to assay: NCI anticancer screen, dose series, 48 h
Test [1] relates to 786-0 renal.
Test [2] has as its system COLO 205 colon.
The subject of test [3] is LOX IMVI melanoma.
Test [4] relates to SF-268 CNS.
Test [5] has as its system SN12C renal.
The subject of test [6] is U251 CNS.
Test [7] deals with HL-60(TB) leukemia.
Test [8] deals with KM12 colon.
The test system of test [9] is SK-MEL-5 melanoma.

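Step 1: Grow cells in 96-well plates. Step 2: Expose to compound for 48 hours at 5 concentrations. Step 3: Interpolate endpoints linearly; if unreached, use highest concentration. Abbreviation: GI50, concentration required for 50% inhibition of growth. TGI: concentration producing complete growth inhibition.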 A value given as a limit tells only on which side of the number the result lay.

Take `O=S(=O)([O-])c1ccc(N=Cc2ccccc2[O-])cc1.O=S(=O)([O-])c1ccc(N=Cc2ccccc2[O-])cc1.[O]=[U+2]=[O]`: the GI50 is 42.7 µM in test [1]; 84.8 µM in [2]; over 100 µM in test [3]; over 100 µM in test [4]; over 100 µM in [5]; 94.7 µM in [6]. The TGI in [1], in [2], in test [3], in [4], in [5] and in test [6] was over 100 µM throughout.

For `OC(c1cc(-c2cccc(Cl)c2)nc2ccccc12)C1CCCCN1` (configuration not stated), the GI50 was 1.84 µM in test [1]; 1.98 µM in [2]; 1.72 µM in test [7]; 1.79 µM in [8]; 1.76 µM in test [3]; 1.57 µM in [4]. Moreover, the GI50 was 2.17 µM in test [5] and 1.66 µM in test [6]. Besides, the TGI in [1] came to 3.47 µM; in test [2], 3.7 µM; in test [7], 4.22 µM; in [8] it was 3.2 µM; in [3], 3.36 µM; in test [4], 2.97 µM. Further, the TGI in test [5] amounted to 5.19 µM; in [6] it was 3.05 µM.

Take `Cc1cc([N+](=O)[O-])ccc1NC(=O)C(=O)C(C(=O)c1ccccc1-c1ccccc1)C1OC(=O)c2ccccc21` (configuration not stated): the TGI in test [1] came out at 32.5 µM; in [2], 41.8 µM; in test [8], 32.5 µM; in test [4] it was 58.1 µM; in test [9], 28.7 µM; in test [5], 37.4 µM. The molecule further yielded a TGI in test [6] of 26 µM.

Turning to `O=C1/C(=N\O)c2ccccc2S1(=O)=O`, the TGI in test [1] was over 100 µM; in [2], 73.6 µM; in [7], over 100 µM; in test [8], over 100 µM; in [3], over 100 µM; in test [4], over 100 µM. Besides, the TGI in test [9], in test [5] and in test [6] was over 100 µM throughout.

On to `COc1c(C)cc(O)cc1C=O`, for which the TGI in [1], in test [2], in test [7], in test [8], in test [3] and in test [4] was over 100 µM each time. For the same molecule, the TGI in test [9], in test [5] and in [6] was over 100 µM in each case.

Turning to `CN(C)c1ccc(/C=C/C(=O)[O-])cc1.CN(C)c1ccc(/C=C/C(=O)[O-])cc1.[Cu+2]`, the GI50 in [1] is 59.5 µM; in test [6], 37.2 µM. Further, the TGI was over 100 µM in [1]; over 100 µM in test [2]; over 100 µM in [7]; over 100 µM in test [8]; over 70.8 µM in [3]; over 100 µM in [4]. Moreover, the TGI is 93.5 µM in test [9], over 100 µM in test [5] and over 100 µM in [6].

As for `CCOC(=O)C1SC(=Nc2cccc(Cl)c2C)N=C1C` (configuration not stated), the TGI is 31.8 µM in [1]; 38.3 µM in [2]; 46.8 µM in [7]; 77.7 µM in test [8]; 32 µM in [3]; over 100 µM in [4]. Moreover, the TGI in test [5] came to 35.6 µM; in [6] it was 30.3 µM.

On to `CC1=Nc2ccccc2NC(c2ccoc2)C1` (configuration not stated), for which the TGI in test [1], in test [2], in [7], in test [8], in test [3] and in test [4] was over 100 µM throughout. The TGI in test [9], in test [5] and in test [6] was over 100 µM in each case.

Regarding `COC(=O)C1=Cc2cc(OC)c(OC)c(OC)c2[C@H](c2cc(OC)c(OC)c(OC)c2)C1C(=O)OC` (some centres not stated), the TGI in test [1], in test [2], in test [7], in [8], in [3] and in [4] was over 100 µM throughout. The TGI in [9], in test [5] and in [6] was over 100 µM in each case.

Consider `c1ccc([CH2][Sn]([CH2]c2ccccc2)([O]c2cccc3cccnc23)[O]c2cccc3cccnc23)cc1`, for which the GI50 in test [1] was 0.155 µM; in test [2] it was 0.194 µM; in test [7] it was 0.314 µM; in [8], 0.223 µM; in [3] it was 0.53 µM; in test [4], 1.2 µM. The GI50 in [9] is 0.213 µM; in test [5], 0.603 µM; in [6] it was 0.218 µM. For the same molecule, the TGI in test [1] was 0.385 µM; in test [2] it was 0.477 µM; in test [7], over 100 µM; in [8] it was 0.515 µM; in test [3], 1.65 µM; in test [4] it was 7.04 µM. For the same molecule, the TGI in test [9] was 0.415 µM; in test [5], 2.1 µM; in test [6] it was 0.463 µM.

With `COC(=O)C(Cc1nc2ccccc2[nH]c1=O)/C(=N\NC(C)(C)C)C(=O)Nc1c(C)cc(Br)cc1C` (configuration not stated), the TGI is 34.4 µM in test [1]; 36.5 µM in test [2]; over 100 µM in test [8]; 40.7 µM in [3]; 77.7 µM in test [4]; 55.3 µM in test [9]. In addition, the TGI in [5] is over 100 µM; in test [6], 49.9 µM.

For the molecule `C=CC(=O)NCCSCCCOC1(C(=O)O)CC(O)C(NC(C)=O)C(C(O)C(O)CO)O1` (configuration not stated), the TGI in test [1], in test [2], in test [7], in test [8], in test [3] and in test [5] was over 100 µM each time. In [6], this molecule had a TGI of over 100 µM.

Turning to `COc1c(O)c(OC)c2oc(-c3ccc(O)c(O)c3)c(OC)c(=O)c2c1O`, the TGI was 50.9 µM in test [1]; over 100 µM in test [2]; 68.7 µM in test [7]; over 100 µM in test [8]; 95.9 µM in test [3]; 10.3 µM in test [4]. In addition, the results for the TGI in [9], in test [5] and in test [6] were 50.8 µM, over 100 µM and 78.1 µM, respectively.

(Values after PubChem BioAssay (NCI).)
